Measured values as given in patent US7157250B2, “Glutamic acid receptor and utilization thereof” (Ajinomoto Co., Inc., priority 2004, dated 2007).

Key:
[1] = test system: abdominal cavity branch of vagus nerve; test: Afferent activity of the abdominal cavity branch of vagus nerve after intraduodenal administration; assay type: in vivo, rat; conditions: 150 mM administered in the duodenum; urethane-anesthetized Wistar rats starved for 18 hours
Procedure: After starved for 18 hours, rats (Wistar strain, male, 8 to 10 week age: Japan Charles River) were laparotomized under anesthesis with urethane (1 g/kg, i.p.) and about 5 mm of the abdominal cavity branch of vagus nerve was peeled off under stereoscopic microscope. After the cutting of vagus nerve fasciculus, the vagus nerve fasciculus was placed on a small operation stage (8×6 mm) and fat and connective tissue surrounding the vagus nerve fasciculus were carefully peeled off. The terminal fiber on the organ side was placed on a platinum-made bipolar electrode and insulated from the surrounding tissue with liquid paraffin/vaseline (1:1) mixed solution. […]
The neural activity potential was amplified 10,000 folds by a micro potential amplifier (DAM-80 manufactured by WPI) and subjected to A/D conversion (Powerlab 4sp, manufactured by ADI Instruments) after noise was decreased by a Bessel filter (4-pole, […]). […] Simultaneously, while monitoring the amplified signals by an oscilloscope, a noise component is separated from a neural signal component by a window discriminator (DSE-435, manufactured by DiaMedical Corporation), integrated for 5 seconds by a Spike Counter (DSE-335P, manufactured by Nihon Kohden Corporation) and recorded by a chart recorder (WT-465G, manufactured by Nihon Kohden Corporation). […]

mGluR4 variant = target: T1, mGluR4 variant (Rattus norvegicus, UniProt P31423); test: Measurement of function of mGluR4 variant gene by cAMP measurement in variant expressing CHO-K1 cells; assay type: cell-based; conditions: 1 mM; for amount of cAMP: in presence of IBMX 100 μM and forskolin 10 μM, n=3
T1 construct: A full-length cDNA of a novel mGluR4 variant was amplified again by a RT-PCR method; V5-His (only in the cloning vector's name); expressed in transfected cells
Procedure: The prepared vector (pcDNA3.1E) was introduced in CHO-K1 cell (Dainippon Pharmaceutical Co., Ltd.) by using polyFect reagent (Qiagen). After 48 hours, neomycin (600 μg/ml) was added to a culture medium (Modified Eagle Medium (αMEM) containing 10% fetal bovine serum, 100 U/ml penicillin; Nacalai Tesque) and cultivation was continued for 2 to 3 weeks to perform screening of gene-introduced cells.
The variant expressing cells obtained as described above were dispensed to 2.5×10^5 cells/well on a plate (24-well) and cultivated for 20 hours and then used for the measurement of the function of cAMP. Each plate was washed well with Dulbeco's phosphate buffer and incubated for 20 minutes. Thereafter, stimulation was performed with each drug for 10 minutes at 37° C. After the stimulation, the cells were at once treated with ice-cooled 2.5% perchloric acid (PCA) for 30 minutes, neutralized with KOH, and centrifuged to obtain a supernatant (12,000 rpm×10 min, 4° C.). The cAMP content of the supernatant was determined according to a conventional enzyme immunoassay (ELISA) by using a cAMP assay kit (Amersham).

T1 sequence (P31423 with tags, fused parts or gaps): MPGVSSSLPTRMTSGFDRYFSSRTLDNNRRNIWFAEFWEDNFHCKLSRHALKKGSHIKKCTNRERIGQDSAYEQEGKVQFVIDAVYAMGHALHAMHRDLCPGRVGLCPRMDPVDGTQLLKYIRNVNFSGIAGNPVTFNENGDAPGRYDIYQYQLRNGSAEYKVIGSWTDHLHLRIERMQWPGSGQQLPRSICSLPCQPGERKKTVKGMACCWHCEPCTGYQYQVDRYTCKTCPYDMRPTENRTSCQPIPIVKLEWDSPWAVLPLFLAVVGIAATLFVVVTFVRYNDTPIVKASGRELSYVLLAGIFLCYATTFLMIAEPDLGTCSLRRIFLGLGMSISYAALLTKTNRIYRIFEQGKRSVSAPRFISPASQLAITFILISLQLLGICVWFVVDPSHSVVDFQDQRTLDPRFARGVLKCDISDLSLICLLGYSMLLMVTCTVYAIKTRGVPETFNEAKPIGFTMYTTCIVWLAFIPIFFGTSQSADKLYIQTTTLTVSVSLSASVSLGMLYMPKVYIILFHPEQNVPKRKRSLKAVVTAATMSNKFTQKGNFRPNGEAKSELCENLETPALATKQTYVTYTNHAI

Row | decrease of the amount of cAMP accumulated in the mGluR4 variant expressing cell (mGluR4 variant; versus sodium chloride (1 mM) added group, IBMX 100 μM and forskolin 10 μM present) | Structure (SMILES) | afferent activity of the abdominal cavity branch of vagus nerve [1] | amount of cAMP (mGluR4 variant)
1 |  | N[C@@H](CCC(=O)[O-])C(=O)[O-].[Na+].[Na+] [MSG, sodium L-glutamate] | increased | 
2 | about 19% | N[C@@H](CCC(=O)O)C(=O)O [glutamic acid] |  | 1,235 fmole
3 |  | [Cl-].[Na+] [sodium chloride] |  | 1,519 fmole
